“Also recorded” adds a separate entry of the source.
Experiments:
[1] = system: M. hyopneumoniae-induced [Ca2+]i increase in porcine ciliated tracheal cells; assay: Effect of pretreatment of tracheal cells on M. hyopneumoniae-induced [Ca2+]i increase; assay type: cell-based
Procedure: (§1) The following techniques were used to obtain [Ca^2+]i measurements in single cells. The tracheal cells were loaded with 4 μM fura-2 acetoxymethyl ester (fura-2AM) in Krebs-Ringer bicarbonate (KRB) buffer solution containing: 136 mM NaCl, 4.8 mM KCl, 1.5 mM CaCl2, 1.2 mM KH2PO4, 1.2 mM MgSO4, 10 mM HEPES, 5.5 mM glucose, and 0.1% BSA, pH 7.4 and incubated for 30 minutes at 37° C. The loaded cells were centrifuged (700× g, 2 minutes), then resuspended with KRB at a concentration of 500-1000 cells/mL. The tracheal cells loaded with fura-2AM were plated onto poly-lysine-coated coverslips in a custom-made Petri dish. The dish containing fura-2 loaded cells was mounted on the stage of an inverted fluorescence microscope (Carl Zeiss, NY). Only viable ciliated tracheal cells were focused on for the determination of [Ca^2+]i at 24° C. The fura-2 loaded porcine ciliated tracheal cells deteriorated quickly at 37° C. Fluorescence images were obtained (excitation wavelengths of 334 and 380 nm; emission wavelength of 510±20 nm) and used to generate spatially resolved maps of [Ca^2+]i by subtracting the background dividing the images on a pixel-by-pixel basis. The emitted signals were digitalized, recorded, and processed using the Attofluor digital fluorescence imaging system (Atto Instruments, Rockville, Md.). After reading fluorescence for 150 seconds, mycoplasmas were mixed with the cell system. [Ca^2+]i was calculated as previously described (Grynkiewicz et al., J. Biol. Chem., 260:3440-3450 (1985)). Calibration was performed in situ according to the procedure provided by Atto Instruments, using Fura-2 penta K^+ as a standard.
To investigate the pathway of Ca^2+ signaling, pertussis toxin (PTX, 100 ng/mL) was preincubated with tracheal cells for 3 hours. Cells were pretreated with thapsigargin (TG, 1 μM) for 30 minutes at 37° C. prior to the addition of the mycoplasmas to deplete the ER Ca^2+ store (Thastrup et al., Proc. Natl. Acad. Sci. USA, 87:2466-2470 (1990)). […] To confirm that mycoplasmas increased [Ca^2+]i by activating a Gi/o protein, Mas 7 (10 μM), an activator of this protein (Higashijima et al., J. Biol. Chem., 265:14176-14186 (1990)), was used to determine if it can increase [Ca^2+]i in tracheal cells. In addition, it was determined whether PTX can block the increase in [Ca^2+]i due to Mas 7.

[2] = system: porcine ciliated tracheal epithelial cells; assay: [Ca2+]i measurement in single fura-2 loaded ciliated tracheal cells; assay type: cell-based
Procedure: Tracheal cells were isolated as previously described (Young et al., Vet. Microbiol., 71:269-279 (1999)). Briefly, the tracheas were removed from 3-6 month old specific-pathogen-free pigs anesthetized with sodium pentobarbital using aseptic techniques. The ciliated cells were dissociated using 0.15% pronase and 0.01% DNase in Ca^2+- and Mg^2+-free MEM medium, which was incubated at 4° C. for 24 hours. The epithelial cells were collected by centrifugation at 125× g for 5 minutes. The cell pellets were resuspended in a mixture of DMEM (high glucose) and Ham's F-12 (1:1) media containing 5% FBS, 0.12 U/mL of insulin, and 100 U/mL of penicillin-streptomycin. Cell suspensions were transferred to 90-mm tissue culture dishes and incubated in 5% CO2 for 60-90 minutes to remove fibroblasts. The tracheal epithelial cells were stored in liquid nitrogen until use.
as §1
To compare the [Ca^2+]i of tracheal cells response to pathogenic M. hyopneumoniae strain 91-3, avirulent M. hyopneumoniae, and M. flocculare, the cells were treated with the same concentration of 300 μg/mL. One to five ciliated single tracheal cells in each experiment were selected to investigate the [Ca^2+]i changes. The mycoplasmas were maintained on ice before being applied to tracheal cells.
Data on [Ca^2+]i were analyzed by ANOVA or by Student's t-test. The significance level was set at P<0.05.

[3] = system: Mas 7-induced [Ca2+]i increase in ciliated tracheal cells; assay: Effect of PTX pretreatment on Mas 7-induced [Ca2+]i increase; assay type: cell-based, porcine; conditions: PTX pretreatment (100 ng/mL, 3 hours); Mas 7 10 μM
Procedure: as §1, with “Only viable ciliated tracheal cells were focused on for the determination of [Ca^2+]i at 24° C. The fura-2 loaded porcine ciliated tracheal cells deteriorated quickly at 37° C.” left out, “Calibration was performed in situ according to the procedure provided by Atto Instruments, using Fura-2 penta K^+ as a standard.” left out

[4] = system: Mhyo membrane-induced [Ca2+]i increase in ciliated tracheal cells; assay: Protease pretreatment of Mhyo membrane, effect on membrane-induced [Ca2+]i increase; assay type: cell-based, porcine
Procedure: FIG. 6 contains four graphs plotting [Ca^2+]i response in ciliated porcine tracheal cells inoculated with Mhyo membranes. Each trace indicates the [Ca^2+]i changes in each tracheal cell. The arrows indicate when administration occurred. (A) The membrane preparation (100 μg/mL) increased [Ca^2+]i. (B) Digestion with proteinase K blocked the membrane-induced increase in [Ca^2+]i. The membrane (100 μg/0.1 mL PBS) was incubated with proteinase K (2 μg) at 37° C. for 8 hours before it was applied to tracheal cells in 0.9 mL Krebs-Ringer bicarbonate (KRB) buffer. (C) Digestion with trypsin potentiated the membrane-induced increase in [Ca^2+]i. The membrane (100 μg/0.1 mL PBS) was incubated with trypsin (6 μg) at 37° C. for 30 minutes before it was applied to tracheal cells in 0.9 mL KRB. […] The soluble protein was prepared by subjecting the trypsinized membrane to ultracentrifigation (100,000× g, 60 minutes) to obtain the supernatant.
Mycoplasmas lack cell walls and have only one type of membrane, the plasma membrane (Razin S. (1993) Mycoplasma membranes as models in membrane research (Chapter 2), In: Subcellular Biochemistry. Vol 20: Mycoplasma Cell Membranes, edited by Rottem S, Kahane I. Plenum Press, New York. pp. 1-28). The Mhyo membrane was prepared by osmotic lysis of the organisms and tested to determine if it increased [Ca^2+]i in ciliated tracheal cells. […]

[5] = system: guinea pig tracheal epithelia; conditions: trypsin 0.1 U/mL; cited from earlier work

Compound: COc1ccc2c(c1)CC[C@@H]1[C@@H]2CC[C@]2(C)[C@@H](NCCCCCCN3C(=O)C=CC3=O)CC[C@@H]12 [U-73122]
- effect on M. hyopneumoniae-induced [Ca2+]i increase ([1]; pretreatment 2 μM, 100 seconds, U-73122): abolished; also recorded: prevented

Compound: COc1ccc2c(c1)CC[C@@H]1[C@@H]2CC[C@]2(C)[C@@H](NCCCCCCN3C(=O)CCC3=O)CC[C@@H]12 [U-73343]
- cells that responded to mycoplasma with pretreatment ([1]; U-73343 2 μM): 82%
- peak [Ca2+]i after mycoplasma with pretreatment ([1]; U-73343 2 μM, basal: 90±12 nM, 10 cells): 330 ± 25 nM
- effect on M. hyopneumoniae-induced [Ca2+]i response ([1]; pretreatment 2 μM, inactive analogue U-73343): did not prevent

Compound: C/C=C(/C)C(=O)O[C@H]1C(C)=C2[C@H]([C@@H]1OC(=O)CCCCCCC)[C@@](C)(OC(C)=O)C[C@H](OC(=O)CCC)[C@@]1(O)[C@H]2OC(=O)[C@@]1(C)O [thapsigargin]
- effect on M. hyopneumoniae-induced [Ca2+]i increase ([1]; pretreatment 1 μM, 30 minutes, mycoplasma 300 μg/mL): abolished

Compound: Mastoparan 7
- [Ca2+]i after administration ([2]; 10 μM, from basal level of 103±4 nM, n=9 cells): 351 ± 24 nM
- cells that responded ([2]; Mas 7 10 μM): 82%
- time to [Ca2+]i increase ([2]; Mas 7 10 μM): ≤ 100 s
- effect on [Ca2+]i ([2]; Mas 7 administration): increased

Compound: pertussis toxin
- effect on M. hyopneumoniae-induced [Ca2+]i increase ([1]; pretreatment 100 ng/mL, 3 hours): abolished
- effect on Mas 7-induced [Ca2+]i increase [3]: abolished

Compound: trypsin
- effect of trypsin pretreatment on membrane-induced [Ca2+]i increase ([4]; pretreatment of the membrane for 30 minutes): potentiated
- effect of trypsin pretreatment on membrane-induced [Ca2+]i increase ([4]; pretreatment of the membrane for 16 hours): failed to reduce
- effect of trypsin alone on [Ca2+]i ([2]; trypsin alone at ≧1 U/mL): increase
- effect on [Ca2+]i [5]: can increase

Reference: patent US20050287163A1, “Mycoplasma polypeptides” (priority 2002, published 2005)
